Key:
C57BL/6J mice = experiment: Chemotherapy-induced alopecia (cyclophosphamide) in depilated mice; format: in vivo
Procedure: We compared efficacy of CBD linked PTH agonists and antagonists in chemotherapy-induced alopecia, utilizing an experimental design published by Peters, et al., for non-CBD linked PTH compounds. Peters, et al. (2001) J Invest Dermatol 117:173-178. C57BL/6J mice (Jackson Laboratories, Bar Harbor, Me.) were depilated to synchronize the hair follicles, and cyclophosphamide (CYP, 150 mg/kg) was administered on day 9 to maximize the chemotherapy-induced damage. The agonist (PTH-CBD) and the antagonist (PTH(7-33)-CBD) were administered 2 days prior to chemotherapy, and given the long-term retention of the compounds in the skin, we administered only a single dose to cover the timing of the multiple injections of PTH agonist and antagonist in the study by Peters, et. al. The administered dose of CBD-linked compounds (320 mcg/kg) is well tolerated in mice. Ponnapakkam et al. (2011) Calcif 88:511-520. […].
We followed these studies by comparing the effects of different doses of PTH-CBD in chemotherapy-induced alopecia. In these studies, we applied the injections more distally on the back and applied a gray-scale analysis to quantify the amount of hair growth. Injecting more distally in the back allows us to compare regrowth of hair after PTH-CBD treatment with less interference from the normal hair regrowth, which normally proceeds from head to tail in mice.

engrafted C3H/Hej mouse = experiment: Alopecia areata model; format: in vivo
Excerpt: Alopecia Areata is a disease of patchy hair loss due to autoimmune destruction of the hair follicles. We tested the efficacy of PTH-CBD in promoting regrowth of hair in an animal model of alopecia areata, the engrafted C3H/Hej mouse. In this model, hair loss develops variably over the first 2 months of life. Shown in FIG. 19 is the results of a single dose of PTH-CBD (320 mcg/kg subcutaneous) administered into the engrafted site, the center of the back, where there was maximal hair loss. Compared to vehicle control animals, which continued to lose hair at this site, animals receiving PTH-CBD began to show regrowth of hair within the next 1-4 days.

mice = experiment: Chemotherapy-induced alopecia without depilation; format: in vivo
Procedure: While the depilated model of chemotherapy-induced alopecia provides a uniform model for comparison of drug effects, the depilation process is known to cause hair follicle injury, and may alter the response of the animals to the PTH-CBD administration. We therefore tested the effects of PTH-CBD in another model of chemotherapy-induced alopecia, where the animals were given 3 courses of cyclophosphamide therapy (50 mg/kg/wk), similar to the usual manner in which cancer patients might be treated. In this model, it takes much longer (4-6 months) for alopecia to develop.
In a second study, we compared the effects of PTH-CBD when given prophylactically, at the time of the first cycle of chemotherapy, vs. therapeutically, after the hair loss had developed. […] This is evident both visually and quantitatively in FIG. 17, using the same grey scale analysis used in our dose-response study.

C57/BL6J mice = experiment: Depilation alopecia (waxing); format: in vivo
Excerpt: The agonist PTH-CBD appears to increase hair growth by increasing the number of anagen phase hair follicles. As such, there is no reason to believe that hair growth effects should be limited to the chemotherapy model. We therefore tested both PTH-CBD and antagonist compound, PTH(7-33)-CBD, after removing hair from C57/BL6J mice by waxing (FIG. 18). […] Thus, it appears that agonist therapy is acting to promote more rapid regrowth of hair by promoting more rapid transition to the anagen phase, while the antagonist inhibited hair regrowth by blocking this transition.

ovarectomized rat = experiment: Ovarectomized aged rats, single dose, sacrifice 6 months after therapy; format: in vivo; conditions: 6 months after single dose 320 mcg/kg
Procedure: In this experiment, rats had their ovaries surgically removed at age 3 months. At age 9 months, rats were injected with either a single dose of PTH-CBD (320 mcg/kg) or vehicle control. Animals were sacrificed 6 months after therapy (age 15 months). […] Serum calcium was measured and there were no differences between groups (Vehicle: 13.5+/−1.1 vs. PTH-CBD: 14.3+/−1.1 mg/dl, NS). […] These findings indicate that a single injection of PTH-CBD can provide long-term suppression of endogenous PTH production, preventing the normal rise seen with age in the ovarectomized rat model, and thus may serve as a therapy for hyperparathyroidism.

[1] = Tissue distribution of 35S-labelled PTH-CBD by whole-body autoradiography; format: in vivo, mice; conditions: subcutaneous injection, 1 hour and 12 hours
Procedure: Tissue distribution was assessed by administering ^35S-labelled PTH-CBD via subcutaneous injection, followed by whole mount frozen and whole-body autoradiography. PTH-CBD with a phosphorylation site between PTH(1-33) and the CBD was purified, activated and labeled with […] as described previously. Tamai et al. (2003) Infect Immun. 71:5371-5375. Approximately 10.8 mcg of ^35S-PTH-CBD (122 kcm/mcg) was injected subcutaneously in 7 week-old mice (32-35 g). Mice were sacrificed at 1 hour or 12 hours post-injection, and then frozen in dry ice-acetone. Frozen sections ([…]) were prepared with an autocryotome, dried at −20° C., and exposed to an image plate for 4 weeks. There appeared to be an initial distribution of ^35S-PTH-CBD to a broad area of skin around the site of injection, followed by a rapid redistribution to the skin of the entire animal, as well as to several other tissues (i.e. bone, intestine, bladder) (FIG. 11).

[2] = Circular dichroism thermal denaturation of collagenous peptides; format: physicochemical; conditions: triple helix thermostability by [θ]225, 0.3° C./min, 1 mg/ml in water
Procedure: The triple helical conformation and the stability of the collagenous peptides were verified using CD spectroscopy (See FIGS. 3 and 4). CD spectra were recorded with a J-820 CD spectropolarimeter (JASCO Co., Hachioji, Japan) equipped with a Peltier thermo controller, using a 0.5-mm quartz cuvette and connected to a data station for signal averaging. All peptide samples were dissolved in water (1 mg/ml), and stored at 4° C. for 24 h. The spectra are reported in terms of ellipticity units per mole of peptide residues [θ]mrw. Thermostability of the triple helix was monitored by the [θ]225 values of each peptide with increasing temperature at the rate of 0.3° C./min.

androgenic alopecia = conditions: long-term (10 years) therapy; cited from earlier work

PTH-CBD: first 33 amino acids of PTH linked directly to the collagen binding domain (SEQ ID NO: 1)
hair regrowth, gray-scale analysis (C57BL/6J mice; 100, 320, 1000 mcg/kg): dose-dependent effect | hair follicle histology (C57BL/6J mice; H&E, day 36, 320 mcg/kg): deeper rooting and reduced melanocyte clumping | excess hair length or growth (C57BL/6J mice; body, ears and tail): no evidence of excess hair length | Counts of anagen VI hair follicles per high-powered field (C57BL/6J mice; day 36, 320 mcg/kg): higher number of hair follicles | adverse effects (C57BL/6J mice; mouse, in vivo): no evidence of adverse effects | serum calcium (C57BL/6J mice; mouse, in vivo): no effect | hair growth (photodocumentation) (C57BL/6J mice; single dose 320 mcg/kg, 2 days prior to CYP, day 36): far more effective at stimulating hair growth than was the antagonist | duration of response (engrafted C3H/Hej mouse; single dose 320 mcg/kg): sustained during the 2 month course | time to regrowth of hair (engrafted C3H/Hej mouse; single dose 320 mcg/kg subcutaneous into engrafted site): 1 to 4 days | effect on hair, prophylactic vs. therapeutic dosing (mice; grey scale analysis): effective in both instances | hair loss (mice; single dose 320 mcg/kg subcutaneous prior to first of 3 cyclophosphamide courses): did not develop hair loss | anagen eruption (C57/BL6J mice; after waxing, vehicle day 9): 7 days | regrowth of hair (C57/BL6J mice; end of study (day 18)): more complete regrowth of hair | Human intact PTH levels (serum levels of PTH-CBD) (ovarectomized rat): undetectable | Rat intact PTH levels (endogenous PTH production) (ovarectomized rat): suppressed the normal increase in endogenous PTH levels | serum calcium (ovarectomized rat; NS vs vehicle): 14.3 ± 1.1 mg/dL | tissue distribution [1]: distribution and retention to skin

(POG)4POA(POG)5
Melting temperatures (Tm) [2]: 29 °C

PROXYL-(POG)6POA(POG)3
Melting temperatures (Tm) [2]: 27 °C

PROXYL-(POG)3POA(POG)6
Melting temperatures (Tm) [2]: 28 °C

^11PROXYL-(POG)3PCG(POG)4
Melting temperatures (Tm) [2]: 28 °C

CC(C)(C)NC(=O)[C@H]1CC[C@H]2[C@@H]3CC[C@H]4NC(=O)C=C[C@]4(C)[C@H]3CC[C@]12C [Finasteride]
response rates (androgenic alopecia): around 50%

PROXYL-(POG)4POA(POG)5
Melting temperatures (Tm) [2]: 29 °C

PROXYL-(POG)5POA(POG)4
Melting temperatures (Tm) [2]: 28 °C

(POG)4POA(POG)5C-PROXYL
Melting temperatures (Tm) [2]: 30 °C

Source: patent US11001820B2, “Delivery of therapeutic agents by a collagen binding protein” (THE BOARD OF TRUSTEES OF THE UNIVERSITY OF ARKANSAS, priority 2011, dated 2021)
